The values that follow come from PMC7862066, “A novel UBE2T inhibitor suppresses Wnt/β-catenin signaling hyperactivation and gastric cancer progression by blocking RACK1 ubiquitination” (Oncogene, 2020).

As usually defined, the Kd is the equilibrium constant for the complex coming apart.

The experiment deals with T1, UBE2T (Homo sapiens, UniProt Q9NPD8).
T1 construct: fluorescently labelled UBE2T protein for MST
Kind of experiment: microscale thermophoresis. The following applies: fluorescently labelled UBE2T; compound titrated 31 nM to 500 μM. Type of experiment: binding. In general terms: In MST a laser heats a spot of the sample, and binding alters the fluorescence response.

T1 sequence (Q9NPD8 whole entry): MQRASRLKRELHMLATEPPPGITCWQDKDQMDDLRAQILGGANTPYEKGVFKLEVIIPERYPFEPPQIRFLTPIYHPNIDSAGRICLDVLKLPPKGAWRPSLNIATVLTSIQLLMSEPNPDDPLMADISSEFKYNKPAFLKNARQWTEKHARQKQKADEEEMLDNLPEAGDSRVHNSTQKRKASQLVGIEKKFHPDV

In turn, `NS(=O)(=O)c1ccc(NC(=O)c2c(O)c3c4c(sc3[nH]c2=O)CCCC4)cc1` [M435-1279] showed a Kd of 50.5 µM.
